One assay addresses T1, AF9-DOT1L interaction (Homo sapiens, UniProt P42568).
T1 construct: human AF9 AHD domain (475–568); made in house; host or cells: E. coli BL21(DE3)
T1 sequence (P42568 475-568): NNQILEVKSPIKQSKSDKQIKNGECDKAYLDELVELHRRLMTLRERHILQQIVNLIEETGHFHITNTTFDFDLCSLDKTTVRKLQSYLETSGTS
Description: AlphaLisa assay, AF9-DOT1L interaction. It is filed as binding. An outline of the steps: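 AlphaLisa proximity assay using MBP-tagged human AF9 AHD (475–568, 5 nM) on anti-MBP acceptor beads and biotinylated DOT1L peptide (40 nM) on streptavidin donor beads, in PBS with 0.5% BSA, pH 7.5. Compound titrated; IC50 from dose-response fits of 3 independent experiments.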

In assay [1] the target is AF9/ENL-DOT1L interaction. Also on record: method as in PMID 30258537, PMID 35612819. The settings on record: printed in Chart 1; ref [33],[34]; cited from earlier work.

Structures can show the parent of a compound that is named as a salt.

For `N#Cc1cccc(-c2ccc3cc(C(=O)NCC4CCNCC4)[nH]c3c2)c1` [Compound 10, 6-(3-Cyanophenyl)-N-(piperidin-4-ylmethyl)-1H-indole-2-carboxamide hydrochloride], the IC50 on AF9-DOT1L interaction (MBP-protein 5 nM, biotinylated peptide 40 nM, 3 independent experiments with standard deviation, read-out: IC50 (μM) against the AF9-DOT1L interaction) was 2.1 µM. For the same compound, at AF9-DOT1L interaction (compound at 5 μM, read-out: % Inhibition at 5 μM against the AF9-DOT1L interaction), the inhibition at 5 µM was 0%. Moreover, the Ki in assay [1] is 9 nM.

The term IC50 denotes the concentration that inhibits the measured activity by half. Broadly, the inhibition is the share of the control response that was lost under treatment. Usually Ki stands for a dissociation constant, usually derived from enzyme kinetics or from competition with a known ligand.
